In this data set the target is T1, human TLR7 (Homo sapiens, UniProt Q9NYK1).
T1 construct: host or cells: HEK-Blue TLR7 293 (TLR7-HEK-293)
T1 sequence (Q9NYK1 27-1049): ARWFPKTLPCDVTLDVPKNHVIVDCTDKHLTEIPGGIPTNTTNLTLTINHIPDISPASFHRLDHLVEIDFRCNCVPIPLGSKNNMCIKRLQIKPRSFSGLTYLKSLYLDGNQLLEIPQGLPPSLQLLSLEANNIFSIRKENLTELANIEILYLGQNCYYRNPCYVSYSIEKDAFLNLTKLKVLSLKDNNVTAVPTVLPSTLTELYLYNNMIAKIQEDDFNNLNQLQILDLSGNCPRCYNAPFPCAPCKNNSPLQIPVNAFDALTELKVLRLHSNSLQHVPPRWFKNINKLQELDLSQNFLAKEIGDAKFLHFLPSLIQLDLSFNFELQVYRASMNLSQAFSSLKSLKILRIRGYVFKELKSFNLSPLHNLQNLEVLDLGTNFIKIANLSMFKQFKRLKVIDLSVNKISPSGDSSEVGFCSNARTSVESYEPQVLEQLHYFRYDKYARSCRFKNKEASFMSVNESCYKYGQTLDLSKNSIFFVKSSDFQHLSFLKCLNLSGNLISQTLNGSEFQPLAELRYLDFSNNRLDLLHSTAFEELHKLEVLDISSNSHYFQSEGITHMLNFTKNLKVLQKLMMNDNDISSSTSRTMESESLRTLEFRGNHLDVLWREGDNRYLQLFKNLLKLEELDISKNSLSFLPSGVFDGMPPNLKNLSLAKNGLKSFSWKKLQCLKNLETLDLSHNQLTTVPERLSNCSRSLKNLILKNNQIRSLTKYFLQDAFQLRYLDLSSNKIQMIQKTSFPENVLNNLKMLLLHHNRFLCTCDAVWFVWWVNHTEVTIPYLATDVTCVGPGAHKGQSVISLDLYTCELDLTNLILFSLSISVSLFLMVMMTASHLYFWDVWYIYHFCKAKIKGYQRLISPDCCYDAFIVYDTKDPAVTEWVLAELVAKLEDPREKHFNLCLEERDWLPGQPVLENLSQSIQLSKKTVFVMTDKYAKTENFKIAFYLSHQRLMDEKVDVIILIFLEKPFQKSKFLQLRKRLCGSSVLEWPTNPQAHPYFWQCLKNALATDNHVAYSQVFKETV
Kind of data set: NF-κB reporter assay (QUANTI-Blue) in TLR7-HEK-293 cells. It counts as cell-based. Particulars: Dotap formulations of miRNA. How it is done:
To investigate whether miRNA-induced activation of TLRs also occurs in human cells, an NF-κB reporter assay was performed in HEK-293 cells. NF-κB, a transcription factor modulating the expression of several cytokine genes, is activated by several TLRs, including the only ssRNA-binding human TLRs, TLR7 and TLR8. Therefore, we treated HEK-293 cells expressing human TLR7 or TLR8 (hereafter, TLR7- and TLR8-HEK-293 cells, respectively) with Dotap alone or with Dotap formulations of miR-16, -21, -29a, or -147 and performed an NF-κB reporter assay. As positive controls Gardiquimod and ssRNA40 were used, specific agonists of TLR7 and TLR8, respectively. […] To confirm this conclusion, transfected were TLR8-HEK-293 cells with a plasmid encoding a dominant negative form of TLR8 (TLR8DN) and treated these cells with the miRNAs of interest. In TLR8DN cells, the activation of NF-κB by miR-21 and miR-29a was abolished (FIG. 3F). […] NF-κB activity was assessed by QUANTI-Blue Assay (Invivogen). […] Levels of SEAP can be easily determined with QUANTI-Blue, a detection medium that turns purple/blue in the presence of alkaline phosphatase. […] The plate was then incubated at 37° C. for 1-3 h and SEAP levels were determined by reading the plate with a spectrophotometer at 620-655 nm (SpectraMax, Molecular Devices).
(A reporter such as luciferase makes a cellular process visible.)

For the substance “miR-147: synthetic mature miRNA (SEQ ID NO: 3), sequence similar to RNA33, Dotap formulation (GUGUGUGGAAAUGCUUCUGC; DOTAP formulation, further chemistry not given here)”, the NF-κB activation result is given as “only in TLR8-HEK-293 cells”.
